# Columns and labels:
# [1] = target: T1, Serine/threonine-protein kinase 3 (Homo sapiens) (UniProt Q13188); settings: at 10 µM
# T1 sequence (whole entry): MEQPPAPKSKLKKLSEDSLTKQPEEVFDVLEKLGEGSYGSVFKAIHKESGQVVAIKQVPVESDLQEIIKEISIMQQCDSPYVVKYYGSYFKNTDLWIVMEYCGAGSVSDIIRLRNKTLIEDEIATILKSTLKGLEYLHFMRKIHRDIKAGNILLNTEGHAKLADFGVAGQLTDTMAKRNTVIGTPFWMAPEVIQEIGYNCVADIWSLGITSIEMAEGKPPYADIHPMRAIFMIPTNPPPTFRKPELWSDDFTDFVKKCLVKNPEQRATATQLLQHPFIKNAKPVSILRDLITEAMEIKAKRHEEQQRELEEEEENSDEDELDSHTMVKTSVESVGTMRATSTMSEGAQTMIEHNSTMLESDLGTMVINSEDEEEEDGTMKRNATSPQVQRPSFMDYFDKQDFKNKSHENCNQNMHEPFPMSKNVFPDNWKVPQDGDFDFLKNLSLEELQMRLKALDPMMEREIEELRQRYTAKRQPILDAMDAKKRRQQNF
# [2] = target: T2, Tyrosine-protein kinase TXK (Homo sapiens) (UniProt P42681); test: Selectivity interaction (Kinase panel (Invitrogen)) EUB0000639a TXK; settings: at 200 nM
# T2 sequence (whole entry): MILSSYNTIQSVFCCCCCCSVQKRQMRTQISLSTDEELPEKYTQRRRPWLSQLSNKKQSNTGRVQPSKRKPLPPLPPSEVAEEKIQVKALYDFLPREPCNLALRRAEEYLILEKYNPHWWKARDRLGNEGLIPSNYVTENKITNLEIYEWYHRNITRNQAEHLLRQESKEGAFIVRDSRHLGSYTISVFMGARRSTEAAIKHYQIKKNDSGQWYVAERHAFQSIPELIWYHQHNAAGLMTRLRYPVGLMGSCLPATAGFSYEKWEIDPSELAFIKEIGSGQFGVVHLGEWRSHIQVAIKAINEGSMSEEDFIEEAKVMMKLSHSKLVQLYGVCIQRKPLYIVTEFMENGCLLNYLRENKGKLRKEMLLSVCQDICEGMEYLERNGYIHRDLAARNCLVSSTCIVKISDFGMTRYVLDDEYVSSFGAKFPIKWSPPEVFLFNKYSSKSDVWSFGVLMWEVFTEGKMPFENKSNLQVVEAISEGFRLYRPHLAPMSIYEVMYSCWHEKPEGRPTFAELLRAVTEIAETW
# [3] = target: T3, Serine/threonine-protein kinase Sgk3 (Homo sapiens) (UniProt Q96BR1); test: Selectivity interaction (KinomeScan (DiscoverX)) EUB0000092b SGK3; settings: at 10 µM
# T3 sequence (whole entry): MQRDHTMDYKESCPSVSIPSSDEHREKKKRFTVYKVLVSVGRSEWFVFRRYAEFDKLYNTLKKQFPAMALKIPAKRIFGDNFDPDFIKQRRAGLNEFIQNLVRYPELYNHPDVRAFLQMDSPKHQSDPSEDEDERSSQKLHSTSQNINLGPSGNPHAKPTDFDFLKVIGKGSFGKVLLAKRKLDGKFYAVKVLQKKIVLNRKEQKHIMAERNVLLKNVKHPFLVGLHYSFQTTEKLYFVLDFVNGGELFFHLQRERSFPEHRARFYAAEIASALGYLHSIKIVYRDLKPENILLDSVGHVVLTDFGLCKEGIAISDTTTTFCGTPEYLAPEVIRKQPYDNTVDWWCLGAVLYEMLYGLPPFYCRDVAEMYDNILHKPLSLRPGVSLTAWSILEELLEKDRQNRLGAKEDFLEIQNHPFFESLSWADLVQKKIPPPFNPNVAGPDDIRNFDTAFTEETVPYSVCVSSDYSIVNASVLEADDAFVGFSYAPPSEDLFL
# [4] = target: Ribosomal protein S6 kinase alpha-3 (Homo sapiens, UniProt P51812); test: Selectivity interaction (Ambit KINOMEscan and KiNATiv profiling in Jurkat cells) EUB0000090b RPS6KA3; assay type: cell-based; settings: at 1 µM
# [5] = target: AP2-associated protein kinase 1 (Homo sapiens, UniProt Q2M2I8); test: Selectivity interaction (KinomeScan (DiscoverX)) EUB0000618a AAK1; settings: at 10 µM
# [6] = target: Serine/threonine-protein kinase Nek4 (Homo sapiens) (UniProt P51957); test: Selectivity interaction (KinomeScan (DiscoverX)) EUB0000607a NEK4; settings: at 10 µM
# [7] = target: Mitogen-activated protein kinase 1 (Homo sapiens, UniProt P28482); test: Selectivity interaction (ProQinase) EUB0000171b MAPK1
# Sequence of Mitogen-activated protein kinase 1 (P28482 whole entry): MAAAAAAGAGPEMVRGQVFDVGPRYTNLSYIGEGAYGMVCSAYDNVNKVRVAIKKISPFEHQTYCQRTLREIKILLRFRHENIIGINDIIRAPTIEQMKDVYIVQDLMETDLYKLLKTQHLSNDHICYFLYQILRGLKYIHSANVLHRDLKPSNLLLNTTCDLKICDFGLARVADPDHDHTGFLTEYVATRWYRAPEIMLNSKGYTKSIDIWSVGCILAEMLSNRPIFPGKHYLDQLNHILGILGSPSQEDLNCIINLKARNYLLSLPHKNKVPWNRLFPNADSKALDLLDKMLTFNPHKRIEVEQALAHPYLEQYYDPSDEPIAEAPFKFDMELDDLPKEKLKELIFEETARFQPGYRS
# Sequence of AP2-associated protein kinase 1 (Q2M2I8 whole entry, looked up): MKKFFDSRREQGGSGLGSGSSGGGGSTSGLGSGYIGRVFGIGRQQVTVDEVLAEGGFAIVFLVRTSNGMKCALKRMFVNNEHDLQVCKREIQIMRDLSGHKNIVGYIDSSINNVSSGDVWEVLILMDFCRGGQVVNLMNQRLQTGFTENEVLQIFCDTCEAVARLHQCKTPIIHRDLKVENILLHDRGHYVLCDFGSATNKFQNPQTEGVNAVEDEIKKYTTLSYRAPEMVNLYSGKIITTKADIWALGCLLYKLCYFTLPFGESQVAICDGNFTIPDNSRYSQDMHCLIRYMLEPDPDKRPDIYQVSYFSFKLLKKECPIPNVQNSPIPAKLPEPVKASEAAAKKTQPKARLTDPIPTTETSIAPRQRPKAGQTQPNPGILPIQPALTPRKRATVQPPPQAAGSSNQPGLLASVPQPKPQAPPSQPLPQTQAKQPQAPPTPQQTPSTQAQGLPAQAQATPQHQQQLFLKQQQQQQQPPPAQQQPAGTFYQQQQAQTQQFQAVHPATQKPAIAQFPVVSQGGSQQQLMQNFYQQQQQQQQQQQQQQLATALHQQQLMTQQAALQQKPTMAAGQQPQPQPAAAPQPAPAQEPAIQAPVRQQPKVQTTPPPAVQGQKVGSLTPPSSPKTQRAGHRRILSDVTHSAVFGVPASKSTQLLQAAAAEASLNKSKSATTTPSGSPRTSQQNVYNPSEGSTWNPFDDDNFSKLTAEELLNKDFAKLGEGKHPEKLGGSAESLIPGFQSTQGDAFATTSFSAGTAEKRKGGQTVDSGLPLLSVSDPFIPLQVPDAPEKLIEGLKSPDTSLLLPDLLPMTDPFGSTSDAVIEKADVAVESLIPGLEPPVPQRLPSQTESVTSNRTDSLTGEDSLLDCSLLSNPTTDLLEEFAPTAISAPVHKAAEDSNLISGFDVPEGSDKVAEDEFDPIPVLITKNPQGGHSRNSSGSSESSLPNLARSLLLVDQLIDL
# Sequence of Ribosomal protein S6 kinase alpha-3 (P51812 whole entry): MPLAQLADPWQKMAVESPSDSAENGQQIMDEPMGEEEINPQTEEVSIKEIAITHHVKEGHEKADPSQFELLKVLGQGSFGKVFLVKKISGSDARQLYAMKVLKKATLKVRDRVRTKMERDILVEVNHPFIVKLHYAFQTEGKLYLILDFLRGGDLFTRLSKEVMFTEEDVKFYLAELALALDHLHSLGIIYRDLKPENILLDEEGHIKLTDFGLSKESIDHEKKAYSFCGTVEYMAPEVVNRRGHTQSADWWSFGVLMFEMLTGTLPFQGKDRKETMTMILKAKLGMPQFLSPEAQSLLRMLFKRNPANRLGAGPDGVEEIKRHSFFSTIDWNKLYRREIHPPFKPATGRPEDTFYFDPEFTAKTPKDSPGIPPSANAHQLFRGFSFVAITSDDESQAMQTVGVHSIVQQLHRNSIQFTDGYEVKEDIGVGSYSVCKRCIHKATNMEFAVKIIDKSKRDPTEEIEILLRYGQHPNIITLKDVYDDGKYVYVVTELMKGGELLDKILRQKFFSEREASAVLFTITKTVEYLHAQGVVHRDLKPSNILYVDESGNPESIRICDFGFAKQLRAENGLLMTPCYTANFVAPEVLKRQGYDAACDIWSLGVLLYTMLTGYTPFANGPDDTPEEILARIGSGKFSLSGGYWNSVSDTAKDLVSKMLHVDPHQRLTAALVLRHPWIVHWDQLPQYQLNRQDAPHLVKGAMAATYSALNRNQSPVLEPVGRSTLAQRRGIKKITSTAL
# Sequence of Serine/threonine-protein kinase Nek4 (Homo sapiens) (P51957 whole entry, looked up): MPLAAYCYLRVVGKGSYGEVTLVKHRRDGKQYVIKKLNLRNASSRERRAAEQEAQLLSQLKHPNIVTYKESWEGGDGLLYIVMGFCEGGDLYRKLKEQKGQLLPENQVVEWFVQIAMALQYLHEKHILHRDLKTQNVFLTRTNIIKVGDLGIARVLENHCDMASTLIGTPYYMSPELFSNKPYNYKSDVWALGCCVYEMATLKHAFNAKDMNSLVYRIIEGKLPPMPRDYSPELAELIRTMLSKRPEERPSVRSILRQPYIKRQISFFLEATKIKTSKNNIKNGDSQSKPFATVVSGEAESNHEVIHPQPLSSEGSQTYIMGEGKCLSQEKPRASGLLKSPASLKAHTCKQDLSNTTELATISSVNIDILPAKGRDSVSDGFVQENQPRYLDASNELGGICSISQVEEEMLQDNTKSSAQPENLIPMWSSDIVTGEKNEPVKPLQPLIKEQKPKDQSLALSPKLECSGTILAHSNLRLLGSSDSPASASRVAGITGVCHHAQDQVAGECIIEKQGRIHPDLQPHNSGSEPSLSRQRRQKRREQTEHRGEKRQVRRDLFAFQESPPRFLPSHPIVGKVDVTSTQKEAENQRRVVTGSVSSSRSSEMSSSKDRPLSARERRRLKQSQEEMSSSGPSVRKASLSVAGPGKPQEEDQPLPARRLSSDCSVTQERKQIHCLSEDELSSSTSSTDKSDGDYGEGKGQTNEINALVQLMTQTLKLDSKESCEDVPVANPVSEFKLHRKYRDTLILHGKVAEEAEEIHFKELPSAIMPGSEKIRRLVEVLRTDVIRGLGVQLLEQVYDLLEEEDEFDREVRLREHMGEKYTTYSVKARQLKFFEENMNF
smiles,measurement,setting,value
CCN(CC)CCCCNc1ncc2cc(-c3cc(OC)cc(OC)c3)c(NC(=O)NC(C)(C)C)nc2n1,% of control,[1],100%
CC[C@@H]1[C@H](F)C(=O)N[C@@H]1COc1nccc2cc(C(N)=O)c(OC)cc12 [ZIMLOVISERTIB],% of inhibition,[2],9.25%
CCC(=O)N1CCN(c2ccc(-n3c(=O)ccc4cnc5ccc(-c6cnc7ccccc7c6)cc5c43)cc2C(F)(F)F)CC1,% of control,[3],100%
CN(C)C/C=C/C(=O)Nc1ccc(C(=O)N2CCCC(Nc3ncc(Cl)c(-c4c[nH]c5ccccc45)n3)C2)cc1 (stereo not drawn),% of control,[4],100%
O[C@H]1CC[C@H](Nc2ncc3nc(Nc4c(F)cc(F)cc4F)n([C@H]4CCOC4)c3n2)CC1,% of control,[5],100%
CNC(=O)Nc1ccc(-c2nc(N3CC4CCC(C3)O4)c3cnn(C4CCC5(CC4)OCCO5)c3n2)cc1,% of control,[6],82%
C=CC(=O)Nc1cccc(C(=O)Nc2ccc(Nc3cc(-c4[nH]c(SC)nc4C)ccn3)cc2)c1,% of control,[7]; at 1 µM,96%
same,% of control,[7]; at 5 µM,100%
